Here are results for ten compounds from patent US20260207605A1, “KRAS G12D INHIBITORS AND USES THEREOF” (Abbisko Therapeutics Co., Ltd., priority 2022, published 2026).

One series has as its target KRAS^G12D/cRAF (Homo sapiens, UniProt P01116, G12D). Description: KRAS G12D/cRAF binding test (Alphalisa). As to conditions: His-tagged KRAS G12D with GMPPNP, GST-tagged cRAF. Background: Alpha assays give light when donor and acceptor beads are brought close together.
For another series, the system named is HPAC. Description: Anti-proliferative 2D CTG assay, HPAC. The format is cell-based. The following applies: Homo sapiens, 96 h, HPAC cells, 4 days incubation, read-out: HPAC cell IC50. Here is the method:
(§1) 1.1 Day 0 Cell Culture and Plating
(§2) Cells in a logarithmic growth phase were harvested and the cells were counted by using a […]. Cell viability was tested by using a trypan blue exclusion method to ensure that cell viability was above 90%. The cell concentration was adjusted to the desired final density, and 90 μL of cell suspension was added to a 96-well plate, then the cells were incubated overnight at 37° C., 5% CO2 and 95% humidity.
(§3) 10 μL PBS was added to each well of the TO plate containing cells. The CTG reagent was thawed and the plate was equilibrated to room temperature for 30 minutes. The CTG solution of 50 µL/well was added to each well. The cells were lysed by shaking on an orbital shaker for 5 minutes. The plate was left at room temperature for 20 minutes to stabilize the luminescence signal. The TO fluorescence signal value was read.
(§4) From the 10 mM stock solution, with a ratio of 1:5, 9-point serial dilutions were performed. The 10× medium containing the compound was transferred into corresponding wells of the 96 wells. The final maximum compound concentration was […] and the final DMSO concentration was 0.1%. The 96-well plate was placed in a 37° C. incubator and incubated for 4 days.
(§5) 50 μL/well of detection reagent (CTG) was added to the cells, and the signal was read in an Envision machine.
(§6) The percent inhibition (%) at each compound concentration was calculated from the signal in the HPE and ZPE control wells and the fluorescence signal in the individual compound wells included in each assay plate. […] The compound concentration required for inhibitory concentration at 50% (IC50) was determined using a four-parameter logarithmic dose-response equation by testing the concentration of the compound and the inhibition percentage value. The endpoint value (IC50) of the reference compound was assessed in each experiment as a quality control measure. If the endpoint value is within three times the expected value, the experiment may be considered acceptable.

Another series concerns LS513. Description: Anti-proliferative 2D CTG assay, LS513. The series is classed as cell-based. The following applies: Homo sapiens, LS-513, 96 h, LS513 cells, 4 days incubation, read-out: LS513 cell IC50. As to the method:
as §1, §2, §3, §4, §5, §6

The next series has as its system AsPC-1. Description: Anti-proliferative 2D CTG assay, AsPC-1. The following applies: AsPC-1 cells, 4 days incubation, read-out: AsPC-1 cell IC50. The series is classed as cell-based. As to the method:
as §1, §2, §3, §4, §5, §6

The next series relates to AGS. Description: Anti-proliferative 2D CTG assay, AGS. The series is classed as cell-based. The following applies: AGS cells, 4 days incubation, read-out: AGS cell IC50. Here is the method:
as §1, §2, §3, §4, §5, §6

Series [1] in a line: Pharmacokinetic experiment in mice (single PO or IV administration). The following applies: male, ICR, mouse, plasma.
Description: (§7) The purpose of this trial is to study the pharmacokinetic behavior of some compounds of the present invention, and the administration method is: single oral administration (PO) or intravenous administration (IV) to ICR mice.
(§8) ICR mice male N=9 original source: Shanghai Sippr-Bk Lab Animal Co., Ltd.
(§9) The compounds were weighed and dissolved in the corresponding solution (0.5% CMC+1% tween water solution or 10% PG+10% Solutol®+80% pH3 citrate buffer). The mixture was then shaken well and sonicated to prepare a 1 mg/mL stock solution. Nine mice were orally administered at a dose of 10 mg/kg or intravenously administered at a dose of 2 mg/kg after an overnight fast.
(§10) About 90 μL of blood was collected via the submandibular vein per time point, heparin sodium anticoagulant was added, the sample was placed on ice after collection, and plasma was centrifuged within 1 hour (centrifugation conditions: 8,000 rpm, 6 minutes, 2-8° C.). The blood collection timepoints were 0, 0.25, 0.5, 1, 2, 4, 6, 8 and 24 h. The samples were stored in a −20° C. refrigerator.
(§11) The plasma sample was 40 μL, 160 μL of ice-cold acetonitrile containing internal standard was added, vortexed for 3 minutes, and centrifuged at 11,000 rpm for 5 minutes. 100 μL of the supernatant was taken and added to 100 μL of water, 5 μL of the sample was taken and injected into LC/MS/MS for analysis.
The next series can be described thus: in vivo. As to conditions: male, ICR, mouse.

For orientation: pIC50 means the IC50 on a negative log10 scale, so that one unit is a factor of ten. As usually defined, the AUC is the area under the concentration-time curve, a measure of exposure. Low readings indicate less exposure, high ones more exposure. The term Cmax denotes the maximum level reached in the sampled fluid or tissue. What is called half-life is the time needed for the level to fall by half in the phase considered. Higher therefore signals slow loss. A word on the bioavailability: it is dose-corrected exposure relative to a reference, in per cent.

Molecules are shown by their SMILES. pIC50: −log10 of the molar value. Read-outs that look alike come from different tables or passages of the source.

Sequence of KRAS^G12D/cRAF (P01116 1-188 isoform P01116-2 G12D): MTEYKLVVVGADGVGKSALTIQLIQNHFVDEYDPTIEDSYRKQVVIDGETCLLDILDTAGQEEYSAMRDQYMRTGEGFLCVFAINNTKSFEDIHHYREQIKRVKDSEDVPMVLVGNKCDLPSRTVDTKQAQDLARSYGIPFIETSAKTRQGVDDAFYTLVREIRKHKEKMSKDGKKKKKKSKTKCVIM
Description for in vivo: as §7, §8, §9, §10, §11

For `[2H]C([2H])([2H])C([2H])([2H])[C@@]12CC[C@@H](CN(c3nc(OC[C@@]45CCCN4CC(=C(F)F)C5)nc4c(F)c(-c5cc(O)cc6ccc(F)c(C#C)c56)ncc34)C1)N2` [Example 47, 4-(2-(((S)-2-(difluoromethylene)tetrahydro-1H-pyrrolizin-7a (5H)-yl)methoxy)-4-((1R,5S)-1-(ethyl-d5)-3,8-diazabicyclo [3.2.1]octan-3-yl)-8-fluoropyrido [4,3-d]pyrimidin-7-yl)-5-ethynyl-6-fluoronaphthalen-2-ol], the pIC50 on KRAS^G12D/cRAF is 7.84; in the series with HPAC, 7.64; in the series on LS513, 7.62; with AsPC-1 (Homo sapiens, ASPC1, 96 h) it was 7.33; with AGS (Homo sapiens, AGS, 96 h), 8.32.
For the compound `C#Cc1c(F)ccc2cc(O)cc(-c3ncc4c(N5C[C@@H]6CC[C@](CC)(C5)N6)nc(OC[C@@]56CCCN5C/C(=C\F)C6)nc4c3F)c12` [Example 56, 4-(4-((1R,5S)-1-ethyl-3,8-diazabicyclo[3.2.1]octan-3-yl)-8-fluoro-2-(((S,Z)-2-(fluoromethylene)tetrahydro-1H-pyrrolizin-7a (5H)-yl)methoxy)pyrido[4,3-d]pyrimidin-7-yl)-5-ethynyl-6-fluoronaphthalen-2-ol], the pIC50 was 8.60 with HPAC, 8.59 in the series on LS513, 8.04 in the series with AsPC-1 and 9.22 in the series with AGS.
For `[2H]C([2H])([2H])OC[C@@]12CC[C@@H](CN(c3nc(OC[C@@]45CCCN4C/C(=C\F)C5)nc4c(F)c(-c5cc(O)cc6ccc(F)c(C#C)c56)ncc34)C1)N2` [Example 62, 5-ethynyl-6-fluoro-4-(8-fluoro-2-(((S,Z)-2-(fluoromethylene)tetrahydro-1H-pyrrolizin-7a(5H)-yl)methoxy)-4-((1R,5S)-1-((methoxy-d3)methyl)-3,8-diazabicyclo[3.2.1]octan-3-yl)pyrido[4,3-d]pyrimidin-7-yl) naphthalen-2-ol], the pIC50 is 8.29 at KRAS^G12D/cRAF; 8.01 in the series with HPAC; 8.31 with LS513; 7.70 with AsPC-1; 8.82 with AGS. Also, the AUC stood at 849 ng·h/mL in series [1] (iv, 2 mg/kg) and 619 ng·h/mL in series [1] (po, 10 mg/kg). Moreover, the Cmax is 764 ng/mL in series [1] (iv, 2 mg/kg) and 224 ng/mL in series [1] (po, 10 mg/kg). Besides, the half-life is 4.9 h in series [1] (iv, 2 mg/kg) and 5.7 h in series [1] (po, 10 mg/kg). In series [1] (po, 10 mg/kg), this compound gave a bioavailability of 14.6%.
Turning to `C#Cc1c(F)ccc2cc(O)cc(-c3ncc4c(N5C[C@@H]6CC[C@](C7CC7)(C5)N6)nc(OC[C@@]56CCCN5C/C(=C\F)C6)nc4c3F)c12` [Example 68, 4-(4-(1-cyclopropyl-3,8-diazabicyclo[3.2.1]octan-3-yl)-8-fluoro-2-(((S,Z)-2-(fluoromethylene)tetrahydro-1H-pyrrolizin-7a (5H)-yl)methoxy)pyrido[4,3-d]pyrimidin-7-yl)-5-ethynyl-6-fluoronaphthalen-2-ol], the negative-log IC50 (pIC50) on KRAS^G12D/cRAF was 7.40; with HPAC, 7.08; in the series with LS513 it was 7.22; with AsPC-1 (Homo sapiens, ASPC1, 96 h), 6.72; in the series on AGS (Homo sapiens, AGS, 96 h), 7.48. In addition, the AUC stood at 813 ng·h/mL in series [1] (iv, 2 mg/kg) and 1070 ng·h/mL in series [1] (po, 10 mg/kg). The Cmax is 887 ng/mL in series [1] (iv, 2 mg/kg) and 300 ng/mL in series [1] (po, 10 mg/kg). Further, the half-life is 6.3 h in series [1] (iv, 2 mg/kg) and 5.6 h in series [1] (po, 10 mg/kg). Moreover, the bioavailability in series [1] (po, 10 mg/kg) stood at 26.4%.
In the case of `[2H]C([2H])([2H])C([2H])([2H])[C@@]12CC[C@@H](CN(c3nc(OC[C@@]45CCCN4C/C(=C\F)C5)nc4c(F)c(-c5cc(O)cc6ccc(F)c(C#C)c56)ncc34)C1)N2` [Example 71, 4-(4-((1R,5S)-1-(ethyl-d5)-3,8-diazabicyclo[3.2.1]octan-3-yl)-8-fluoro-2-(((S,Z)-2-(fluoromethylene)tetrahydro-1H-pyrrolizin-7a(5H)-yl)methoxy)pyrido[4,3-d]pyrimidin-7-yl)-5-ethynyl-6-fluoronaphthalen-2-ol], the pIC50 at KRAS^G12D/cRAF is 8.25; in the series with HPAC it was 8.64; with LS513, 8.39; in the series on AsPC-1 (Homo sapiens, ASPC1, 96 h), 7.78; with AGS (Homo sapiens, AGS, 96 h), 8.85. Further, the AUC in series [1] (iv, 2 mg/kg) was 497 ng·h/mL; in series [1] (po, 10 mg/kg) it was 1020 ng·h/mL. For the same compound, the Cmax in series [1] (iv, 2 mg/kg) stood at 638 ng/mL; in series [1] (po, 10 mg/kg), 461 ng/mL. Further, the half-life is 6.6 h in series [1] (iv, 2 mg/kg) and 4.9 h in series [1] (po, 10 mg/kg). Moreover, the bioavailability in series [1] (po, 10 mg/kg) amounted to 41.1%.
Take `C#Cc1c(F)ccc2cc(O)cc(-c3ncc4c(N5C[C@@H]6CC[C@](C7CCCC7)(C5)N6)nc(OC[C@@]56CCCN5C/C(=C\F)C6)nc4c3F)c12` [Example 75, 4-(4-((1S,5S)-1-cyclopentyl-3,8-diazabicyclo[3.2.1]octan-3-yl)-8-fluoro-2-(((S,Z)-2-(fluoromethylene)tetrahydro-1H-pyrrolizin-7a (5H)-yl)methoxy)pyrido[4,3-d]pyrimidin-7-yl)-5-ethynyl-6-fluoronaphthalen-2-ol]: the pIC50 at KRAS^G12D/cRAF is 7.46; in the series on HPAC it was 7.03; with LS513, 7.25; in the series on AGS (Homo sapiens, AGS, 96 h), 7.85.
Turning to `[2H]C([2H])([2H])C([2H])([2H])[C@@]12CC[C@@H](CN(c3nc(OC[C@@]45CCCN4C/C(=C\F)C5)nc4c(F)c(-c5cc(N)cc6ccc(F)c(C#C)c56)ncc34)C1)N2` [Example 137, 4-(4-((1R,5S)-1-(ethyl-d5)-3,8-diazabicyclo[3.2.1]octan-3-yl)-8-fluoro-2-(((S,Z)-2-(fluoromethylene)tetrahydro-1H-pyrrolizin-7a(5H)-yl)methoxy)pyrido [4,3-d]pyrimidin-7-yl)-5-ethynyl-6-fluoronaphthalen-2-amine], the pIC50 at KRAS^G12D/cRAF was 8.02; in the series with HPAC, 7.93; in the series with LS513, 7.84; in the series with AsPC-1 (Homo sapiens, ASPC1, 96 h), 7.42; in the series on AGS (Homo sapiens, AGS, 96 h), 8.03. The AUC in series [1] (iv, 2 mg/kg) was 775 ng·h/mL; in series [1] (po, 10 mg/kg) it was 1880 ng·h/mL. For the same compound, the Cmax in series [1] (iv, 2 mg/kg) was 467 ng/mL; in series [1] (po, 10 mg/kg), 298 ng/mL. Moreover, the half-life in series [1] (iv, 2 mg/kg) was 5.9 h; in series [1] (po, 10 mg/kg), 2.9 h. For the same compound, the bioavailability in series [1] (po, 10 mg/kg) stood at 48.6%.
Take `C#Cc1c(F)ccc2cc(O)cc(-c3ncc4c(N5CC6CCC(C5)N6)nc(OC[C@@]56CCCN5C[C@H](F)C6)nc4c3F)c12` [Positive Compound 1, reference compound]: the pIC50 with HPAC was 7.99; in the series with LS513 it was 7.74; in the series with AsPC-1 (Homo sapiens, ASPC1, 96 h) it was 7.46; in the series on AGS (Homo sapiens, AGS, 96 h) it was 8.38. The AUC in series [1] (iv, 2 mg/kg) was determined as 367 ng·h/mL; in series [1] (po, 10 mg/kg), 40.2 ng·h/mL. Moreover, the Cmax in series [1] (iv, 2 mg/kg) was found to be 1130 ng/mL; in series [1] (po, 10 mg/kg) it was 20.6 ng/mL. The bioavailability in series [1] (po, 10 mg/kg) is 2.2%.
Regarding `C#Cc1c(F)ccc2cc(O)cc(-c3ncc4c(N5C[C@@H]6CC[C@](CC)(C5)N6)nc(OC[C@@]56CCCN5C[C@H](F)C6)nc4c3F)c12` [Positive Compound 2, reference compound], the pIC50 is 7.48 with HPAC; 7.23 with LS513; 7.08 in the series with AsPC-1 (Homo sapiens, ASPC1, 96 h); 8.04 in the series on AGS (Homo sapiens, AGS, 96 h).
In the case of `C#Cc1c(F)ccc2cc(N)cc(-c3ncc4c(N5C[C@H]6CC[C@@H](C5)N6)nc(OC[C@@]56CCCN5C/C(=C\F)C6)nc4c3F)c12` [Reference Compound 4, 4-(4-((1R,5S)-3,8-diazabicyclo [3.2.1]octan-3-yl)-8-fluoro-2-(((S,Z)-2-(fluoromethylene)tetrahydro-1H-pyrrolizin-7a(5H)-yl)methoxy)pyrido[4,3-d]pyrimidin-7-yl)-5-ethynyl-6-fluoronaphthalen-2-amine], in the series “in vivo” (iv, 2 mg/kg), the AUC stood at 163 ng·h/mL, the Cmax was determined as 104 ng/mL and the half-life was 8.4 h. In “in vivo” (po, 10 mg/kg), this compound showed an AUC of 52.8 ng·h/mL, a Cmax of 14.8 ng/mL, a bioavailability of 6.5% and a half-life of 4.6 h.
